Data: ChEMBL document CHEMBL1201862, “PubChem BioAssay data set” (2004)
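96-well plates; 48 h exposure; 5 concentrations. Endpoints by linear interpolation between flanking doses. Not reached: highest tested concentration assigned. GI50: concentration for 50% inhibition of growth.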 Calls of active or inactive are those of the source. Cut-off read from the data, not from the text of the source: active = GI50 up to about 1.1 µM and inactive = higher.

What was measured:
Assay in all cases: growth of human tumour cells (NCI), 48 h
CAKI-1 = system: CAKI-1
LOX IMVI = system: LOX IMVI
SK-MEL-2 = system: SK-MEL-2
NCI/ADR-RES = system: NCI/ADR-RES
SW-620 = system: SW-620
SF-268 = system: SF-268
Malme-3M = system: Malme-3M
A498 = system: A498
M14 = system: M14
UACC-257 = system: UACC-257
HCC 2998 = system: HCC 2998
OVCAR-5 = system: OVCAR-5
NCI-H23 = system: NCI-H23
SNB-75 = system: SNB-75
HL-60 = system: HL-60
SF-539 = system: SF-539
HT-29 = system: HT-29
UO-31 = system: UO-31
HCT-15 = system: HCT-15
SK-MEL-28 = system: SK-MEL-28

Structure (SMILES)	GI50 (CAKI-1)	GI50 (LOX IMVI)	GI50 (SK-MEL-2)	GI50 (NCI/ADR-RES)	GI50 (SW-620)	GI50 (SF-268)	GI50 (Malme-3M)	GI50 (A498)	GI50 (M14)	GI50 (UACC-257)	GI50 (HCC 2998)	GI50 (OVCAR-5)	GI50 (NCI-H23)	GI50 (SNB-75)	GI50 (HL-60)	GI50 (SF-539)	GI50 (HT-29)	GI50 (UO-31)	GI50 (HCT-15) [µM]	GI50 (SK-MEL-28)
Cc1ccc(-c2n[nH]c(=O)n2/N=C\c2ccccc2)cc1	57.9 µM (inactive)	> 100 µM (inactive)	33.8 µM (inactive)	25.2 µM (inactive)	> 100 µM (inactive)	28.4 µM (inactive)	> 91.2 µM (inactive)	36.6 µM (inactive)	> 93.1 µM (inactive)	> 100 µM (inactive)	> 87.3 µM (inactive)	> 100 µM (inactive)	68.9 µM (inactive)	28.6 µM (inactive)	70.1 µM (inactive)	76.2 µM (inactive)	> 91 µM (inactive)	> 68.7 µM (inactive)	72.6	> 72.8 µM (inactive)
CC1=C[C@@H]2[C@@H](CC(CO)=C[C@H]3[C@@H]4C(C)(C)[C@]4(OCC(C)C)[C@H](OCC(C)C)[C@@H](C)[C@]23O)C1=O	1.38 µM (inactive)	1.25 µM (inactive)	2.1 µM (inactive)	2.55 µM (inactive)	1.19 µM (inactive)	3.43 µM (inactive)	0.766 µM (active)	1.08 µM (active)	1.51 µM (inactive)	1.62 µM (inactive)	0.574 µM (active)	2.23 µM (inactive)	1.91 µM (inactive)	2.97 µM (inactive)	0.495 µM (active)	0.975 µM (active)	1.21 µM (inactive)	2.22 µM (inactive)	1.42	1.3 µM (inactive)
